We go through five compounds from PubChem BioAssay AID1259411 (Chemical Carcinogenesis Research Information System (CCRIS), 2018).

The data set deals with rodent carcinogenicity bioassays, tumor incidence. As to the kind of experiment: CCRIS carcinogenicity studies. In a few lines:
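Archive of carcinogenicity, mutagenicity, tumor promotion and tumor inhibition results drawn from journals, NCI reports and other sources, expert-reviewed; covers 1985-2011 and is no longer updated.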

The structures appear in SMILES notation. Active and inactive are the calls of the source. How the calls were made is not given here.

With `CC(O)CCl` (stereo not given), the carcinogen call is, setting by setting: (Species: MOUSE, Strain/Sex: B6C3F1/FEMALE, Route: ORAL, Dose: 0, 250, 500, 1000 PPM IN DRINKING WATER FOR DURATION OF STUDY (STUDY DURATION: 2 YR), Dose: 0, 250, 500, 1000 PPM IN DRINKING WATER FOR DURATION OF STUDY (STUDY DURATION: 2 YR)) “inactive; negative”; (Species: MOUSE, Strain/Sex: B6C3F1/MALE, Route: ORAL, Dose: 0, 250, 500, 1000 PPM IN DRINKING WATER FOR DURATION OF STUDY (STUDY DURATION: 2 YR), Dose: 0, 250, 500, 1000 PPM IN DRINKING WATER FOR DURATION OF STUDY (STUDY DURATION: 2 YR)) “inactive; negative”; (Species: RAT, Strain/Sex: F344/FEMALE, Route: ORAL, Dose: 10, 150, 325, 650 PPM IN DRINKING WATER FOR DURATION OF STUDY (STUDY DURATION: 2 YR), Dose: 10, 150, 325, 650 PPM IN DRINKING WATER FOR DURATION OF STUDY (STUDY DURATION: 2 YR)) “inactive; negative”; (Species: RAT, Strain/Sex: F344/MALE, Route: ORAL, Dose: 0, 150, 325, 650 PPM IN DRINKING WATER FOR DURATION OF STUDY (STUDY DURATION: 2 YR), Dose: 0, 150, 325, 650 PPM IN DRINKING WATER FOR DURATION OF STUDY (STUDY DURATION: 2 YR)) “inactive; negative”.

As to `O=[N+]([O-])c1cc2ccc3cccc4ccc(c1)c2c34`, the carcinogen call (Species: RAT, Strain/Sex: STRAIN-CD/FEMALE, Route: INJECTION, Dose: 0, 0.1 ML IN 20.3 UMOL/ML DMSO INJECTED INTO MAMMARY TISSUE OF THE 3 LEFT THORACIC NIPPLES FOLLOWED THE NEXT D BY SIMILA) was “inactive; negative”; the carcinogen call (Species: RAT, Strain/Sex: STRAIN-CD/FEMALE, Route: INJECTION, Dose: 0, 0.1 ML OF A 20.3 UMOL/ML SOLUTION IN DMSO INJECTED INTO MAMMARY TISSUE UNDERLYING 3 LEFT THORACIC NIPPLES THE FOLLOWI) is “inactive; negative”; the carcinogen call (Species: RAT, Strain/Sex: STRAIN-CD/FEMALE, Route: INTRAPERITONEAL, Dose: 0, 67 UMOL/KG BW IN DMSO 3/WK FOR 4 WK (STUDY DURATION: 61 WK), Tumor Site: Type of Lesion: HEMATOPOIETIC SYSTEM: LEUKEMIA, LYMPHOMA) is “active; positive”; the carcinogen call (Species: RAT, Strain/Sex: STRAIN-CD/FEMALE, Route: INTRAPERITONEAL, Dose: 0, 67 UMOL/KG/BW IN 25 UMOL/ML DMSO 3/WK FOR 4 WK (TOTAL DOSE: 0; 119 UMOL) ADMINISTERED TO WEANLING RATS (STUDY DURATIO, Dose: 0, 67 UMOL/KG/BW IN 25 UMOL/ML DMSO 3/WK FOR 4 WK (TOTAL DOSE: 0; 119 UMOL) ADMINISTERED TO WEANLING RATS (STUDY DURATIO, Tumor Site: Type of Lesion: HEMATOPOIETIC SYSTEM: LEUKEMIA OR LYMPHOMA) was “active; positive”.

Consider `CCN(N=O)C(=O)NC`, for which the carcinogen call is, setting by setting: (Species: RAT, Strain/Sex: F344/FEMALE, Route: GAVAGE, Dose: 0, 20, 40 UMOL/WK IN CORN OIL/ETHYL ACETATE (2: 1) FOR 30 WK FOR TOTAL DOSES OF 0, 0.6, 1.2 MMOL (STUDY DURATION: LIFETI, Dose: 0, 20, 40 UMOL/WK IN CORN OIL/ETHYL ACETATE (2: 1) FOR 30 WK FOR TOTAL DOSES OF 0, 0.6, 1.2 MMOL (STUDY DURATION: LIFETI, Tumor Site: Type of Lesion: MAMMARY GLAND: TUMOR, UTERUS: TUMOR) “active; positive”; (Species: RAT, Strain/Sex: F344/FEMALE, Route: ORAL, Dose: 0, 20, 40 UMOL/WK IN DRINKING WATER FOR 30 WK FOR TOTAL DOSES OF 0, 0.6, 1.2 MMOL (STUDY DURATION: LIFETIME), Dose: 0, 20, 40 UMOL/WK IN DRINKING WATER FOR 30 WK FOR TOTAL DOSES OF 0, 0.6, 1.2 MMOL (STUDY DURATION: LIFETIME), Tumor Site: Type of Lesion: LUNG: TUMOR, MAMMARY GLAND: TUMOR, UTERUS: TUMOR, THYROID: FOLLICULAR CELL TUMOR, NERVOUS SYSTEM: TUMOR, Tumor Site: Type of Lesion: LUNG: TUMOR, MAMMARY GLAND: TUMOR, UTERUS: TUMOR, THYROID: FOLLICULAR CELL TUMOR, NERVOUS SYSTEM: TUMOR) “active; positive”; (Species: RAT, Strain/Sex: F344/MALE, Route: GAVAGE, Dose: 0, 20, 40 UMOL/WK IN CORN OIL/ETHYL ACETATE (2: 1) FOR 30 WK FOR TOTAL DOSES OF 0, 0.6, 1.2 MMOL (STUDY DURATION: LIFETI, Dose: 0, 20, 40 UMOL/WK IN CORN OIL/ETHYL ACETATE (2: 1) FOR 30 WK FOR TOTAL DOSES OF 0, 0.6, 1.2 MMOL (STUDY DURATION: LIFETI, Tumor Site: Type of Lesion: LUNG: TUMOR, TESTIS: MESOTHELIOMA, ZYMBAL GLAND: TUMOR, Tumor Site: Type of Lesion: LUNG: TUMOR, TESTIS: MESOTHELIOMA, ZYMBAL GLAND: TUMOR) “active; positive”; (Species: RAT, Strain/Sex: F344/MALE, Route: ORAL, Dose: 0, 20, 40 UMOL/WK IN DRINKING WATER FOR 30 WK FOR TOTAL DOSES OF 0, 0.6, 1.2 MMOL (STUDY DURATION: LIFETIME), Dose: 0, 20, 40 UMOL/WK IN DRINKING WATER FOR 30 WK FOR TOTAL DOSES OF 0, 0.6, 1.2 MMOL (STUDY DURATION: LIFETIME), Tumor Site: Type of Lesion: LUNG: TUMOR, THYROID: FOLLICULAR CELL TUMOR, TESTIS: MESOTHELIOMA, NERVOUS SYSTEM: TUMOR, ZYMBAL GLAND: TUMOR, COLON: TU, Tumor Site: Type of Lesion: LUNG: TUMOR, THYROID: FOLLICULAR CELL TUMOR, TESTIS: MESOTHELIOMA, NERVOUS SYSTEM: TUMOR, ZYMBAL GLAND: TUMOR, COLON: TU) “active; positive”.

Turning to `Cc1ccc(N=Nc2c(O)ccc3ccccc23)c([N+](=O)[O-])c1`, the carcinogen call runs as follows: (Species: MOUSE, Strain/Sex: B6C3F1/FEMALE, Route: ORAL, Dose: 0, 12500, 25000, 50000 PPM IN FEED FOR 2 YR (STUDY DURATION: 2 YR), Dose: 0, 12500, 25000, 50000 PPM IN FEED FOR 2 YR (STUDY DURATION: 2 YR)) “inactive; negative”; (Species: MOUSE, Strain/Sex: B6C3F1/MALE, Route: ORAL, Dose: 0, 12500, 25000, 50000 PPM IN FEED FOR 2 YR (STUDY DURATION: 2 YR), Dose: 0, 12500, 25000, 50000 PPM IN FEED FOR 2 YR (STUDY DURATION: 2 YR), Tumor Site: Type of Lesion: KIDNEY (CORTEX): ADENOMA, THYROID GLAND (FOLLICULAR CELL): ADENOMA) “active; positive”; (Species: RAT, Strain/Sex: F344/FEMALE, Route: ORAL, Dose: 0, 6000, 12500, 25000 PPM IN FEED FOR 2 YR (STUDY DURATION: 2 YR), Dose: 0, 6000, 12500, 25000 PPM IN FEED FOR 2 YR (STUDY DURATION: 2 YR), Tumor Site: Type of Lesion: LIVER: HEPATOCELLULAR ADENOMA) “active; positive”; (Species: RAT, Strain/Sex: F344/MALE, Route: ORAL, Dose: 0, 6000, 12500, 25000 PPM IN FEED FOR 2 YR (STUDY DURATION: 2 YR), Dose: 0, 6000, 12500, 25000 PPM IN FEED FOR 2 YR (STUDY DURATION: 2 YR), Tumor Site: Type of Lesion: ADRENAL MEDULLA: PHEOCHROMOCYTOMA (BENIGN OR MALIGNANT)) “active; positive”.

For the compound `CCCCN(CC)c1c([N+](=O)[O-])cc(C(F)(F)F)cc1[N+](=O)[O-]`, the carcinogen call (Species: Mouse, Strain/Sex: B6C3F1/Female, Route: Oral, Dose: 0, 0.005, 0.03, 0.15% in diet for 2 yrs in 2 replicates of 30 mice/sex/group, Dose: 0, 0.005, 0.03, 0.15% in diet for 2 yrs in 2 replicates of 30 mice/sex/group) was “inactive; negative; slight but not statistically elevated incidence of total neoplastic tu”; the carcinogen call (Species: Mouse, Strain/Sex: B6C3F1/Male, Route: Oral, Dose: 0, 0.005, 0.03, 0.15% in diet for 2 yrs in 2 replicates of 30 mice/sex/group, Dose: 0, 0.005, 0.03, 0.15% in diet for 2 yrs in 2 replicates of 30 mice/sex/group) was “inactive; negative; slight but not statistically elevated incidence of total neoplastic t”; the carcinogen call (Species: Rat, Strain/Sex: CDF (F344)CrlBR/Female (50/sex/group), Route: Oral, Dose: 0, 10, 100, 2500, 5000 ppm (about 0; 0.7; 6.8; 168; 331 mg/kg/day ) in diet for 104 wks, Dose: 0, 10, 100, 2500, 5000 ppm (about 0; 0.7; 6.8; 168; 331 mg/kg/day ) in diet for 104 wks, Tumor Site: Type of Lesion: Thyroid: thyroid follicular adenomas and carcinomas (0/50; 0/50; 1/50; 5/50; 4/50)) was “active; positive; ca dpr judged the study as showing possible adverse effects”; the carcinogen call (Species: Rat, Strain/Sex: CDF (F344)CrlBR/Male (50/sex/group), Route: Oral, Dose: 0, 10, 100, 2500, 5000 ppm (about 0; 0.5; 5.4; 136; 275 mg/kg/day ) in diet for 104 wks, Dose: 0, 10, 100, 2500, 5000 ppm (about 0; 0.5; 5.4; 136; 275 mg/kg/day ) in diet for 104 wks, Tumor Site: Type of Lesion: Thyroid: thyroid follicular adenomas and carcinomas (1/50; 1/50; 7/50; 8/50) Liver: Hepatocellular tumors (primari) was “active; positive; ca dpr judged the study as showing possible adverse effects”.
